Assays:
[1] = Cell Titer-fluor cell activity assay in HCV-1b replicon cells (CC50); type: cell-based
Method in brief: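 Con1 genotype 1b replicon cells (E1202G, T1280I, K1846T adaptive mutations), 8000 cells/well, exposed to 6-point 5-fold dilutions from 100, 10 or 1 nM top concentration in 0.5% DMSO, duplicate wells, 3 days at 37 °C. Viability read by Cell Titer-fluor (Ex 405/Em 515 nm) after 30 min; CC50 from nonlinear fit of inhibition %.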

in vitro = type: cell-based; conditions: HCV 1a replicon cells, 3 days, Cell Titer-fluor
Protocol: The EC50 and CC50 values of anti-HCV compounds were determined by HCV genotype 1a (HCV-1a) and 1B (HCV-1b) stable transfer replication (replicon) cells. The source of genotype 1a replicon is H77 clones containing K1691R, K2040R and S2204I adaptive mutations. The source of genotype 1b replicon is Con1 clones containing E1202G, T1280I and K1846T adaptive mutations.
HCV Replicon Cell Lines: HCV-1a and HCV-1b Cells
The compound powder was dissolved in 100% DMSO. Then the compound was diluted 5 times with 6 points, and added into the cell plate with Echo liquid handler. Ensure the final concentration of DMSO was 0.5%. Each compound was tested in double holes. Maximum initial concentration was 100, 10 or 1 nM, 5 times dilution, 6 points.
b) Cell Culture (HCV-1a or HCV-1b Replicon Cell):
1) absorbing the culture supernatant of the cell culture and washing the cells with 10 mL PBS.
2) adding preheated pancreatin to the washed cell culture flasks, rotating culture bottle to make the bottom of the culture bottle uniformly covered by pancreatin, then placed into 37° C., 5% CO2 incubator to digest.
3) suspending cells in each T150 culture flask with 10-15 mL culture medium, absorbing 0.1 mL liquid and diluting 2 times by trypan blue solution as counted.
4) diluting cells to 8×10^4/mL with the culture medium, adding the diluted cells into the compound-containing 96-well plate (Greiner, Cat.#655090) (100 μL/well, 8000 cells/well) with automatic liquid separator (Thermo Scientific). Then place into a 37° C., 5% CO2 incubator for 3 days. Cell control well: no compound, only containing 0.5% DMSO.
5) adding chemiluminescent substrate Cell Titer-fluor to the cell well, after incubation for 30 minutes, detecting the signal by chemiluminescence detection system Envison (Ex at 405 nm and read at 515 nm). The effect of the compounds on the activity of HCV replicon cells was analyzed according to the luminescence data, which was used to calculate the CC50 values.
The EC50 or CC50 values were obtained by nonlinear fitting analysis on inhibition percentage (inh %) data with GraphPad Prism software.

[2] = test system: HCV genotype 1b (HCV-1b) replicon cells; test: HCV genotype 1b replicon luciferase assay (EC50); type: cell-based, hepatitis C virus genotype 1b (Con1 clone); conditions: Hepatitis C virus, 72 h, 3 days, luciferase (Bright-Glo)
Method in brief: (§1)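 H77-derived 1a (K1691R, K2040R, S2204I) or Con1-derived 1b (E1202G, T1280I, K1846T) luciferase replicon cells, 8000/well, exposed 3 days at 37° C. to 6-point 5-fold dilutions (top 100, 10 or 1 nM; 0.5% DMSO), in duplicate. Bright-Glo luminescence read; EC50 from nonlinear fit of % inhibition.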

[3] = test system: HCV genotype 1a (HCV-1a) replicon cells; test: HCV genotype 1a replicon luciferase assay (EC50); type: cell-based, hepatitis C virus genotype 1a (H77 clone); conditions: Hepatitis C virus, 72 h, 3 days, luciferase (Bright-Glo)
Method in brief: as §1

Structure (SMILES)	CC50 at 3 days [1]	CC50 (in vitro)	EC50 [2]	EC50 [3]
COC(=O)NC(C(=O)N1CCCC1c1[nH]c(-c2ccc(-c3ccc(-c4cnc([C@@H]5CCCN5C(=O)C(NC(=O)OC)C5CCOCC5)[nH]4)cc3)cc2)c2c1CCC2)C1CCOCC1 (stereo partly drawn) [AG_042]	> 100 nM	> 100 nM	0.101 to 1 nM	1 to 10 nM
COC(=O)N[C@H](C(=O)N1CCC[C@H]1c1ncc(-c2ccc(-c3ccc(-c4ccc(C5CCCN5C(=O)[C@@H](NC(=O)OC)C(C)C)[nH]4)cc3)cc2)[nH]1)c1ccccc1 (stereo partly drawn) [AG_052]	> 100 nM	> 100 nM	0.001 to 0.1 nM	1 to 10 nM
COC(=O)NC(C(=O)N1CCCC1c1[nH]c(-c2ccc(-c3ccc(-c4cnc([C@@H]5CCCN5C(=O)[C@@H](NC(=O)OC)C(C)C)[nH]4)cc3)cc2)c2c1CCC2)C1CCOCC1 (stereo partly drawn) [AG_036]	> 10 nM	> 100 nM	0.001 to 0.1 nM	1 to 10 nM
COC(=O)NC(C(=O)N1CCC[C@H]1c1ncc(-c2ccc(-c3ccc(-c4[nH]c(C5CCCN5C(=O)[C@@H](NC(=O)OC)C(C)C)c5c4CCC5)cc3)cc2)[nH]1)C1CCOCC1 (stereo partly drawn) [AG_035]	> 10 nM	> 100 nM	0.001 to 0.1 nM	10 to 100 nM
COC(=O)NC(C(=O)N1CCC[C@H]1c1ncc(-c2ccc(-c3ccc(-c4[nH]c(C5CCCN5C(=O)[C@@H](NC(=O)OC)C(C)C)c5c4CCCC5)cc3)cc2)[nH]1)C1CCOC1 (stereo partly drawn) [AG_046]	> 100 nM	> 100 nM	0.101 to 1 nM	10 to 100 nM
COC(=O)N[C@H](C(=O)N1CCC[C@H]1c1ncc(-c2ccc(-c3ccc(-c4ccc(C5CCCN5C(=O)[C@@H](NC(=O)OC)C5CCOCC5)[nH]4)cc3)cc2)[nH]1)C(C)C (stereo partly drawn) [AG_037]	> 10 nM	> 100 nM	0.001 to 0.1 nM	0.101 to 1 nM
COC(=O)N[C@H](C(=O)N1CCCC1c1ccc(-c2ccc(-c3ccc(-c4cnc([C@@H]5CCCN5C(=O)[C@@H](NC(=O)OC)C5CCOC(C)C5)[nH]4)cc3)cc2)[nH]1)C(C)C (stereo partly drawn) [AG_053]	> 100 nM	> 100 nM	0.101 to 1 nM	1 to 10 nM
COC(=O)NC(C(=O)N1CCCC1c1[nH]c(-c2ccc(-c3ccc(-c4cnc([C@@H]5CCCN5C(=O)[C@@H](NC(=O)OC)C(C)C)[nH]4)cc3)cc2)c2c1CCCC2)C1CCOCC1 (stereo partly drawn) [AG_040]	> 10 nM	> 100 nM	0.101 to 1 nM	10 to 100 nM
COC(=O)NC(C(=O)N1CCCC1c1[nH]c(-c2ccc(-c3ccc(-c4cnc([C@@H]5CCCN5C(=O)C(NC(=O)OC)C5CCOCC5)[nH]4)cc3)cc2)c2c1CCCC2)C1CCOCC1 (stereo partly drawn) [AG_045]	> 100 nM	> 100 nM	0.101 to 1 nM	10 to 100 nM
COC(=O)N[C@H](C(=O)N1CCCC1c1ncc(-c2ccc3cc(-c4ccc(-c5[nH]c(C6CCCN6C(=O)[C@@H](NC(=O)OC)C(C)C)c6c5CCC6)cc4)ccc3c2)[nH]1)C(C)C (stereo partly drawn) [AG_048]	> 100 nM	> 100 nM	0.101 to 1 nM	10 to 100 nM
COC(=O)NC(C(=O)N1CCC[C@H]1c1ncc(-c2ccc(-c3ccc(-c4[nH]c(C5CCCN5C(=O)[C@@H](NC(=O)OC)C(C)C)c5c4CCC5)cc3)cc2)[nH]1)C1CCOC1 (stereo partly drawn) [AG_049]	> 100 nM	> 100 nM	0.001 to 0.1 nM	10 to 100 nM
COC(=O)NC(C(=O)N1CCCC1c1ccc(-c2ccc(-c3ccc(-c4[nH]c(C5CCCN5C(=O)[C@H](NC(=O)OC)C(C)C)c5c4CCC5)cc3)cc2)[nH]1)C1CCOCC1 (stereo partly drawn) [AG_038]	> 10 nM	> 100 nM	0.101 to 1 nM	10 to 100 nM
